Measurements published in US7968139B2, “Packaged beverages” (Kao Corporation, priority 2000, dated 2011).

Experiments:
[1] = test system: PPAR-dependent gene transcription in human hepatic cell line HepG2; test: Test on PPAR-dependent gene transcription activation (PPAR-Luc reporter), HepG2; type: cell-based; conditions: HepG2, test concentration 10 μM, 24 hours
Protocol: (§1) The small intestine epithelial cell line IEC-6 and human hepatic cell line HepG2 were inoculated on a 12 well plate and cultured in DMEM (5% FCS) for 24 hours. A DNA chain containing PPAR responsive element (underlined portion) ([…]), a SV40 promoter gene, a PPAR reporter plasmid (PPAR-Luc) containing firefly luciferase gene, and a control plasmid having thymidine kinase promoter gene linked on the upstream of renilla luciferase gene were introduced simultaneously by using a transfection reagent (“Superfect transfection reagent”, product of Promega Corporation) each in an amount of 0.5 μg/well. The culture broth was then replaced with a DMEM (—FCS) medium containing a test substance, followed by incubation for further 24 hours. After washing with PBS, the cells were lysed using dual luciferase assay system (product of Promega Corporation). To the resulting lysate, a substrate solution containing luciferin was added and firefly and renilla luciferase activities were measured by a luminometer. In this test system, a PPAR-dependent gene transcriptional activator was searched for by measuring the transcriptional activity (luciferase activity of PPAR-dependent gene. It is to be noted that the PPAR-dependent gene transcriptional activity (luciferase activity) was defined as described below. PPAR-dependent gene transcriptional activity (luciferase activity)=(firefly luciferase activity by PPAR-Luc)/(renilla luciferase activity by TK-Luc)
(§2) In Table 8, PPAR-dependent gene transcription activating capacity of each test substance in IEC-6 and HepG2 cell lines is shown. In this table, PPAR-dependent transcriptional activity by the control is set at 100 and activity relative to it is indicated. As a positive control, fenofibrate was employed.

[2] = test system: PPAR-dependent gene transcription in small intestine epithelial cell line IEC-6; test: Test on PPAR-dependent gene transcription activation (PPAR-Luc reporter), IEC-6; type: cell-based; conditions: IEC-6, test concentration 10 μM, 24 hours
Protocol: as §1, §2

Row | Molecule | PPAR-dependent transcriptional activity (luciferase activity) relative to control set at 100 [1] | PPAR-dependent transcriptional activity (luciferase activity) relative to control set at 100 [2]
1 | O=C(O[C@@H]1Cc2c(O)cc(O)cc2O[C@@H]1c1ccc(O)c(O)c1)c1cc(O)c(O)c(O)c1 [Epicatechin gallate] | 166 | 178
2 | Catechin | 149 | 152
3 | Oc1cc(O)c2c(c1)O[C@H](c1ccc(O)c(O)c1)[C@H](O)C2 [Epicatechin] | 150 | 158
4 | O=C(O[C@@H]1Cc2c(O)cc(O)cc2O[C@@H]1c1cc(O)c(O)c(O)c1)c1cc(O)c(O)c(O)c1 [Epigallocatechin gallate] | 172 | 184
